From patent publication US6562865B1, “Composition comprising a tramadol material and an anticonvulsant drug” (Ortho-McNeil Pharmaceutical, Inc., priority 1999, dated 2003)
Read-outs that look alike come from different tables or passages of the source.

Legend:
[1] = tested on: mechanical (tactile) allodynia in Chung Model rats; test: Antiallodynic effect in the Chung Model (L5 spinal nerve ligation, paw withdrawal threshold with von Frey filaments); settings: for ED50: Rattus norvegicus, po, read-out: ED50 (SEM) of drug alone
Experimental: The antiallodynic effect of the composition of the present invention in the Chung Model is expressed in % MPE (Maximum Possible Effect).
Pathogen-free, male albino Sprague-Dawley rats, 200 g, were purchased from Harlan Industries (Indianapolis, Ind.) and maintained on a 12-h light/dark cycle (lights on at 06:00 h) in a climate-controlled room with food and water available ad libitum.
The rats were anesthetized with isoflurane inhalant anesthesia. The left lumbar spinal nerve at the level of L5 was tightly ligated (4-0 silk suture) distal to the dorsal root ganglion and prior to entrance into the sciatic nerve, as described by Kim and Chung. The incisions were closed and the rats were allowed to recover under conditions described above. This procedure results in mechanical allodynia in the left hind paw. The sham operation, when performed, consisted of a similar surgical procedure lacking only the final ligation of the spinal nerve. Mechanical (tactile) allodynia was assessed by recording the pressure at which the affected paw (ipsilateral to the site of nerve injury) was withdrawn from graded stimuli (von Frey filaments ranging from 4.0 to 148.1 mN) applied perpendicularly to the plantar surface of the paw (between the footpads) through wire-mesh observation cages. A paw withdrawal threshold (PWT) was determined by sequentially increasing and decreasing the stimulus strength and analyzing withdrawal data using a Dixon non-parametric test (Chaplan, et al). Normal rats, sham operated rats, and the contralateral paw of L5 ligated rats withstand at least 148.1 mN (equivalent to 15 g) of pressure without responding.
The dosing materials were all prepared in the vehicle, a suspension of 0.5% hydroxypropyl methylcellulose in distilled water; drug weights were calculated as the free base. The tramadol solution was prepared first, and the appropriate volume of this solution was added to a neat amount of the anticonvulsant to give the final dosing suspension. Drug weights were calculated as the free base, and the ratios used were based on the respective ED50 values of tramadol and the anticonvulsant. The necessary doses for each ratio were prepared separately and dosed orally in a volume of 10 mL/kg per rat.
The Chung Model rats were all dosed orally with the composition comprising a combination of tramadol hydrochloride (calculated as the base) and the anticonvulsant drug (calculated as the base) or the composition of each agent separately dissolved in distilled water or dissolved in a suspension of 0.5% hydroxypropyl methylcellulose in distilled water. The dosing volume was 10 mL/kg.
The rats were intubated with various doses of tramadol hydrochloride alone, anticonvulsant drug alone, combined doses of tramadol hydrochloride and anticonvulsant or vehicle such as distilled water or a suspension of 0.5% hydroxypropyl methylcellulose in distilled water.
Within a certain time after the oral administration of tramadol hydrochloride alone, the anticonvulsant drug alone, the composition comprising a combination of tramadol hydrochloride and the anticonvulsant drug or vehicle alone, the PWT test was commenced. Each rat was used in the evaluation of only a single dose-ratio.
The analysis of possible synergistic effect for the compositions at each fixed ratio was determined (R. J. Tallarida, et al., Life Sci., 1989, 45, 947). This procedure involves the determination of the total amount in the mixture that is required to produce a specified synergistic antiallodynic effect at the 50% dose level (that is, the ED50mix or Zmix) and the corresponding total amount that would be expected under simple additivity (ED50add or Zadd). Where it is established that Zmix<Zadd for a specific fixed-ratio, then that composition has a synergistic antiallodynic effect. Both the quantities ED50mix and ED50add are random variables.

[2] = tested on: hot plate latency response in mice; test: Antinociceptive effect in the 48° C. Mouse Hot Plate Model; type: in vivo; settings: for % Maximal Possible Effect: 1.5 hours
Experimental: Mice were placed on a heated surface (48° C.) and the time interval (seconds) between placement and a shaking, licking, or tucking of the hind paw was recorded as the predrug latency response. This same procedure was repeated at various times after the test drug was administered p.o., 10 mL/kg.
The 48° C. Mouse Hot Plate was used to calculate the % maximal possible effect (% MPE) according to the formula: [formula]
The analysis of possible synergistic effect at each fixed ratio was determined as described by Tallarida, et al., above.

[3] = drug alone 25 mg/kg p.o., 2 hours
[4] = drug alone 50 mg/kg p.o., 2 hours
[5] = drug alone 75 mg/kg p.o., 2 hours
[6] = drug alone 125 mg/kg p.o., 2 hours
[7] = drug alone 150 mg/kg p.o., 2 hours
[8] = drug alone 100 mg/kg p.o., 2 hours
[9] = drug alone 250 mg/kg p.o., 2 hours
[10] = drug alone 500 mg/kg p.o., 2 hours
[11] = drug alone 30 mg/kg p.o., 1 hour
[12] = drug alone 60 mg/kg p.o., 1 hour
[13] = drug alone 90 mg/kg p.o., 1 hour

Row | SMILES | ED50 ([1]; 2 h) [mg/kg] | % MPE [1, 3] [% MPE] | % MPE [1, 4] [% MPE] | % MPE [1, 5] [% MPE] | % MPE [1, 6] [% MPE] | % MPE [1, 7] [% MPE] | % MPE [1, 8] [% MPE] | % MPE [1, 9] [% MPE] | % MPE [1, 10] [% MPE] | ED50 ([1]; 1 h) [mg/kg] | % MPE [1, 11] [% MPE] | % MPE [1, 12] [% MPE] | % MPE [1, 13] [% MPE] | % Maximal Possible Effect ([2]; drug alone 10 mg/kg p.o.) [%] | % Maximal Possible Effect ([2]; drug alone 30 mg/kg p.o.) [%] | further results
1 | Nc1nnc(-c2cccc(Cl)c2Cl)c(N)n1 [Lamotrigine] | 75.5 | 5.48 | 21.95 | 48.69 | 75.09 | 83.51 | – | – | – | – | – | – | – | – | – | –
2 | NCC1(CC(=O)O)CCCCC1 [Gabapentin] | 440 | – | – | – | – | – | 7.31 | 15.62 | 54.26 | – | – | – | – | – | – | % MPE ([1]; drug alone 750 mg/kg p.o., 2 hours): 67.95 % MPE; % MPE ([1]; drug alone 1000 mg/kg p.o., 2 hours): 85.34 % MPE
3 | NC(=O)OC[C@@H](O)c1ccccc1Cl [RWJ-333369, 1,2-ethanediol, 1-(2-chlorophenyl)-, 2-carbamate, (S)-] | – | – | – | – | – | – | – | – | – | 77.4 | 5.57 | 30.43 | 57.01 | – | – | % MPE ([1]; drug alone 45 mg/kg p.o., 1 hour): 23.01 % MPE; % MPE ([1]; drug alone 75 mg/kg p.o., 1 hour): 54.54 % MPE
4 | CC1(C)O[C@@H]2[C@@H](CO[C@@]3(COS(N)(=O)=O)OC(C)(C)O[C@@H]23)O1 [Topiramate, 2,3,4,5-bis-O-(1-methylethylidene)-β-D-fructopyranose sulfamates] | 98 | 11.54 | 26.58 | – | – | – | 56.42 | 76.51 | 94.38 | – | – | – | – | 0.82 | 9.71 | –
5 | COc1cccc(C2(O)CCCCC2CN(C)C)c1 (single isomer, unassigned) [Tramadol, (1R,2R or 1S,2S)-2-[(dimethylamino)methyl]-1-(3-methoxyphenyl)cyclohexanol] | 94.5 | – | 3.77 | 20.62 | 74.29 | 100 | 45.38 | – | – | 48.6 | 25.70 | 40.96 | 73.61 | 5.83 | 37.74 | ED50 ([2]; Mus musculus, po, 1.5 h, p.o., 48° C. hot plate, read-out: ED50 (SEM) at 1.5 Hours): 35.1 mg/kg; % Maximal Possible Effect ([2]; drug alone 100 mg/kg p.o.): 86.62%; % Maximal Possible Effect ([2]; drug alone 300 mg/kg p.o.): 100%; antinociceptive effect in dose-response study ([2]; p.o., 48° C. hot plate): dose-dependent antinociceptive effect; antinociceptive effect at the higher doses ([2]; p.o., 48° C. hot plate, higher doses): Full antinociceptive effect; % MPE ([1]; drug alone 10 mg/kg p.o., 1 hour): 16.79 % MPE; % MPE ([1]; drug alone 120 mg/kg p.o., 1 hour): 84.05 % MPE
